Where two headings read alike, the source gives them in different places.
How the values were obtained:
[1] = system: CD4- and gp120-mediated cell fusion; assay: cells; assay type: cell-based
HIV-1SKI = assay: Analysis of replicated viral DNA (Hirt fractions), CEM-SS cells; assay type: cell-based
Procedure: Analysis of viral replication. CEM-SS cells (2×10^7) were infected with HIV-1SKI (MOI of I) for 45 minutes at 37 ° C. with gentle mixing. Following virus attachment, the cells were gently pelleted, washed twice and resuspended in complete tissue culture medium. The cells were then divided into aliquots, treated with various concentrations of drug and placed in T75 culture flasks. The cells were incubated at 37° C. for 18-20 hours and then harvested by centriguation. To extract nucleic acids for analysis of HIV-1 integration low- and high-molecular weight DNA were prepared from HIV-1 infected cells (untreated or treated with increasing concentrations of drug) according to the protocol originally described by Hirt (Hirt, B. J., J. Mol. Biol. 26:365-369 (1967)) and modified by Gowda et al., Gowda, et al., J. Immunol. 142:773-780 (1989).
DNA (300 ng), obtained from the low-molecular weight Hirt fractions, was used as the template in PCR analysis undergoing a 30 cycle amplification reaction using the conditions described by Steinkasserer et al. (Steinkasserer, et al., J. Virol. 69:814-824 (1995)). […] PCR products were separated by agarose gel electrophoresis and visualized by ethidium bromide staining.

[2] = human, up to 236 ug/mL
[3] = cynomolgus monkey, in vivo
[4] = assay type: in vivo, cynomolgus monkeys
Procedure: Dosing. Twelve experimentally naive cynomolgus monkeys were assigned to four groups of three animals each. Prior to dosing, each animal was lightly sedated with a combination of ketamine (1 0 mg/kg) and diazepam (0.5 mg/kg), and a catheter was introduced into the femoral artery for recording central arterial pressure. Monkeys were given a single intravenous infusion of 5, 20, or 50 mg AR177/kg or saline over ten minutes through a cephalic vein catheter using a Harvard infusion pump. Arterial blood samples were drawn at −10, +10, +20, +40, +60 and +120 minutes relative to the initiation of infusion into EDTA-containing tubes for hematology, complement factors, coagulation assay, serum chemistry, and plasma AR177 determination. At 24 hours post-infusion, blood was drawn via the femoral vein into EDTA-containing tubes for these same parameters. The concentration of AR177 in dosing solutions was confirmed post experiment by absorbance at 280 nm on a spectrophotometer. For the determination of AR177 by HPLC, the plasma fraction was obtained by low speed centrifugation of blood, and stored at −20° C. until used. Electrocardiograms (ECGs), central pressure, and heart rate were recorded continuously for 120 minutes following the initiation of doing. Table E-1 summarizes the study design. The animals were observed twice daily pharmacotoxic signs and general health beginning two days before dosing and for seven days following dosing. The monkeys were not necropsied at the end of the study.

NIH3T3 = assay type: cell-based
Procedure: (§1) Cytotoxicity Analysis. The cytotoxicity of T30177 was assayed as described above. […] The degree of cell proliferation was determined according to the manufacturer's instructions.
(§2) Cytotoxicity Assays. The cytotoxicity of T30177 was determined using several different cell lines and primary human cells as described above. The cytotoxicity profile obtained for log phase growing cells was variable depending upon the cell line used, while the slower growing PBMCs, PBLs, and macrophages all tolerated the compound at concentrations exceeding 100 μM as monitored using the trypan blue exclusion, [^3H]thymidine uptake, or [^3H]leucine uptake techniques.

Vero = assay type: cell-based
Procedure: as §1, §2

FIV integrase = biological target: T1, FIV integrase (Feline immunodeficiency virus, UniProt P16088); assay: FIV integrase 3′-processing assay; assay type: biochemical
T1 construct: Purified recombinant wild-type FIV and SIV integrases were generous gifts; purchased gift of Dr. S. Chow (UCLA) (not bought)

[5] = parameters: species or system HIV-positive human patients; conditions: human, in vivo
Procedure: Four HIV-infected patients/group were dosed with AR177 at 0.75 mg/kg and […], and two HIV-infected patients were dosed so far with AR177 at 3.0 mg/kg by intravenous infusion over two hours.
Blood was collected in EDTAp coated tubes at 0.25, 05, 1, 2, 2.05, 3, 3.5, 4, 6, 8, 11, 14, 26, 48, 98, and 122 hours following initiation of drug administration. Plasma was obtained by low speed centrifugation of the blood, and was stored frozen until analyzed by HPLC for AR177 concentration. The concentration of AR177 was determined in patient plasma using a validated anion-exchange HPLC method at the Division of Clinical Pharmacy of the University of California, San Francisco. This method has a limit of quantitation of 15 ng/mL in human plasma.
Pharmacokinetic parameters were calculated using PKAnalyst software (MicroMath, Salt Lake City, Utah). The pharmacokinetic data best fit a two compartment model for all of the patients. The alpha and beta half-lives were almost identical in each of the patients, based on the software interpretation of the AR177 plasma concentration versus time plot (FIGS. 56-59). For this reason, only one half-life is reported.

5′-gtggtgggtgggtgggt-3′ [T30177] (GTGGTGGGTGGGTGGGT; phosphorothioate termini, further chemistry not given here) [pPT version of parent compound I100-15, 17 mer]
Body Weights (2.5 mg/kg, Day 7): 3.1 ± 0.6
Body Weights (2.5 mg/kg, Day 14): 3.2 ± 0.6
Body Weights (2.5 mg/kg, Day 21): 3.2 ± 0.6
Body Weights (2.5 mg/kg, Day 25): 3.1 ± 0.6
Body Weights (2.5 mg/kg, Prestudy): 3.1 ± 0.5
Body Weights (10 mg/kg, Day 7): 3.2 ± 0.7
Body Weights (10 mg/kg, Day 14): 3.3 ± 0.7
Body Weights (10 mg/kg, Day 21): 3.3 ± 0.7
Body Weights (10 mg/kg, Day 25): 3.2 ± 0.7
Body Weights (10 mg/kg, Prestudy): 3.2 ± 0.7
treatment-related clinical sign (40 mg/kg): discoloration around the eyes in three high-dose animals
Body Weights (40 mg/kg, Day 7): 3.2 ± 0.6
Body Weights (40 mg/kg, Day 14): 3.3 ± 0.6
Body Weights (40 mg/kg, Day 21): 3.2 ± 0.6
Body Weights (40 mg/kg, Day 25): 3.1 ± 0.6
Body Weights (40 mg/kg, Prestudy): 3.2 ± 0.6
mortality (2.5, 10, 40 mg/kg every other day, 12 doses): No animals died
body weight (12 doses): no effects on body weight
ECG recordings (cynomolgus monkey, in vivo): No abnormalities
fusion IC50 relative to virus infection assay IC50 [1]: approximately 100 fold
IC50 ([1]; read-out: IC50 CD4- and gp120-mediated cell fusion): 1 µM
extent of viral replication (PCR of Hirt DNA) (HIV-1SKI): up to an including the production of 2-LTR circles
complement CH50 [2]: no effect
histopathology of organs and tissues [3]: No clearly treatment-related histopathologic changes
organ weight [3]: no effects on organ weight
emesis during the infusion ([4]; 20 mg/kg): all of the monkeys
emesis during the infusion ([4]; 50 mg/kg): two of the three animals
blood pressure, heart rate, electrocardiographic activity ([4]; 5, 20, 50 mg/kg): No clearly treatment-related changes
mortality ([4]; up to 50 mg/kg): no animals died

5′-gtggtgggtgggtgggt-3′ (GTGGTGGGTGGGTGGGT; phosphorothioate termini, further chemistry not given here) [T30177, pPT version of parent compound I100-15, 17 mer]
IC50 virus-induced cytopathogenicity (Yellow Fever virus; Yellow Fever virus): >200 µg/mL
MCC minimum concentration altering normal cell morphology (Yellow Fever virus; Yellow Fever virus assay): >200 μg/mL
CC50 (NIH3T3): > 100 µM
TC25 (NIH3T3): >100 µM
TC95 (NIH3T3): >100 µM
CC50 (Vero): > 100 µM
TC25 (Vero): >100 µM
TC95 (Vero): >100 µM
IC50 (FIV integrase): 0.175 µM
initial volume of distribution ([5]; 0.75 mg/kg): 0.16 ± 0.05 L/kg
steady-state volume of distribution ([5]; 0.75 mg/kg): 0.14 ± 0.05 L/kg
initial volume of distribution ([5]; 3 mg/kg): 0.08 ± 0.00 L/kg
steady-state volume of distribution ([5]; 3 mg/kg): 0.05 ± 0.03 L/kg

Source: US6355785B1, “Guanosine-rich oligonucleotide integrase inhibitors” (Aronex Pharmaceuticals, Inc., priority 1993, dated 2002)
